The experiment deals with T1, APOL1 (Homo sapiens, UniProt O14791).
T1 sequence (O14791 1-398 S342G/I384M): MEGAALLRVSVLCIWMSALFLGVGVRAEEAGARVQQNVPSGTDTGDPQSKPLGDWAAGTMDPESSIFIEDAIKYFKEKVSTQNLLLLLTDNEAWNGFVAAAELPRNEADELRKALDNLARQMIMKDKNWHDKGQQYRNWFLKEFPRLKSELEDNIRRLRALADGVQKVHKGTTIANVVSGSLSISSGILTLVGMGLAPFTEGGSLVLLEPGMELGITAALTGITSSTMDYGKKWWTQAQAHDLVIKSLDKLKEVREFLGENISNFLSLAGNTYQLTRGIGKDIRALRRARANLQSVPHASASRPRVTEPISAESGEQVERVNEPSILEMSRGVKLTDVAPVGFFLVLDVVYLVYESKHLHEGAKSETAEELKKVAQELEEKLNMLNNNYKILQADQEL
In words: MultiTox-Fluor Multiplex Cytotoxicity Assay in tet-inducible APOL1 T-REx-HEK293 cells (cell rescue, ratio of dead to live cells). Format: cell-based. As to conditions: tet-inducible transgenic APOL1 T-REx-HEK293 cell lines, 50 ng/mL tet, 24 hours; read-out: IP50 (i.e., IC50 for cell proliferation). An excerpt:
The MultiTox-Fluor Multiplex Cytotoxicity Assay is a single-reagent-addition, homogeneous, fluorescence assay that measures the number of live and dead cells simultaneously in culture wells. The assay measures cell viability and cytotoxicity by detecting two distinct protease activities. […] The substrate enters intact cells, where it is cleaved to generate a fluorescent signal proportional to the number of living cells. […] A ratio of dead to live cells is used to normalize data.
The MultiTox reagent was added to each well and placed back in the incubator for an additional 30 minutes. The plate was read on the EnVision plate reader. A ratio of dead to live cells was used to normalize, and data was imported, analyzed, and fit using Genedata Screener (Basel, Switzerland) software. Data was normalized using percent of control, no tet (100% viability), and 50 ng/mL tet treated (0% viability), and fit using Smart Fit. The reagents, methods, and complete protocol for the MultiTox assay are described below.
Cells were washed with DPBS and then trypsinized to dissociate from the flask. Media was used to quench the trypsin, cells were then pelleted at 200 g and resuspended in fresh cell assay media (DMEM, 2% Tet-free FBS, 2 mM L-glutamine, 100 Units/mL penicillin-streptomycin). […] The plates were then incubated at room temperature for one hour.
Tetracycline is needed to induce APOL1 expression. 1 mg/mL tet stock in water was diluted to 250 ng/mL (5×) in cell assay media.
Compounds were dispensed at 200 nL in DMSO. The final top concentration was 10 μM with a 10 point 3-fold dilution in duplicate in the MultiTox assay.
20 μL was transferred from the 5× tet plate to the ARP and mixed, then 5 μL of 5× tet and the compounds were transferred to the cell plate and mixed using the Bravo. The cell plate was placed in the humidified 37° C. 5% CO2 incubator for 24 hours.
The MultiTox-Fluor Multiplex Cytotoxicity Assay was performed in accordance with the manufacturer's protocol. After cells were incubated with tet and compound for 24 hours, 25 μL of 1× MultiTox reagent was added to each well using the Multidrop dispenser; the plates were placed on a plate shaker (600 rpm) for 2 minutes, then centrifuged briefly and placed back in the 37° C. incubator for 30 minutes. The cell viability (excitation: 400 nm, emission: 486 nm) and cytotoxicity (excitation: 485 nm, emission: 535 nm) were read using the EnVision plate reader. A ratio of dead (cytotoxicity) to live (viability) cells was reported. Data was exported and analyzed in Genedata. Data was normalized using percent of control, no tet (100% viability), and 50 ng/mL tet treated (0% viability), and fit using Smart Fit settings in Genedata.

For the compound `C[C@H]1C[C@@]2(CCN1Cc1cnn(C)c1)OCC(O)c1cc(Cl)sc12` (mixture of isomers) [Compound 818], the IC50 was under 100 nM.

Turning to `C[C@H]1C[C@@]2(CCN1Cc1cnc(N[C@H]3CC[C@H](O)CC3)nc1)OCC(O)c1cc(Cl)sc12` (mixture of isomers) [Compound 825, (2′S, 7R)-2-chloro-1′-[[2-[(4-hydroxycyclohexyl)amino]pyrimidin-5-yl]methyl]-2′-methyl-spiro[4,5-dihydrothieno[2,3-c]pyran-7,4′-piperidine]-4-ol], the IC50 was under 100 nM.

With `Cc1cn2nc(CN3CC[C@]4(C[C@@H]3C)OCC(O)c3cc(Cl)sc34)cc2c(NC2CC2)n1` (mixture of isomers) [Compound 826, 2-chloro-1′-[[4-(cyclopropylamino)-6-methyl-pyrazolo[1,5-a]pyrazin-2-yl]methyl]-2′-methyl-spiro[4,5-dihydrothieno[2,3-c]pyran-7,4′-piperidine]-4-ol], the IC50 is under 100 nM.

On to `CCc1cc2c(s1)CCO[C@@]21CCN(C2CC[C@@H](NC(=O)OC(C)(C)C)C2)[C@@H](C)C1` (single isomer, unassigned) [Compound 296], for which the IC50 lay within 100 to 500 nM.

Regarding `Cc1cc2c(s1)CCO[C@@]21CCN(C2COCC2O)[C@@H](C)C1` (single isomer, unassigned) [Compound 499], the IC50 is under 100 nM.

On to `Cc1cc2c(s1)CCO[C@@]21CCN(C2COCC2O)[C@@H](C)C1` (single isomer, unassigned) [Compound 500], for which the IC50 was under 100 nM.

In the case of `CC1Cc2sc(Cl)cc2C2(CCN(Cc3cnn(C)c3)[C@@H](C)C2)O1` (single isomer, unassigned) [Compound 528, (2′S)-2-chloro-2′,6-dimethyl-1′-[(1-methylpyrazol-4-yl)methyl]spiro[6,7-dihydrothieno[3,2-c]pyran-4,4′-piperidine]], the IC50 lay in the range of 100 to 500 nM.

Consider `CC1Cc2sc(Cl)cc2C2(CCN(Cc3cnn(C)c3)[C@@H](C)C2)O1` (single isomer, unassigned) [Compound 529, (2′S)-2-chloro-2′,6-dimethyl-1′-[(1-methylpyrazol-4-yl)methyl]spiro[6,7-dihydrothieno[3,2-c]pyran-4,4′-piperidine]], for which the IC50 is under 100 nM.

Regarding `C[C@H]1C[C@@]2(CCN1Cc1cnn(CCS(C)(=O)=O)c1)OCC(O)c1cc(Cl)sc12` (single isomer, unassigned) [Compound 768], the IC50 was under 100 nM.

Take `C[C@H]1C[C@@]2(CCN1Cc1cnn(CCS(C)(=O)=O)c1)OCC(O)c1cc(Cl)sc12` (single isomer, unassigned) [Compound 769]: the IC50 is under 100 nM.

In the case of `C[C@H]1C[C@@]2(CCN1Cc1cnn(C)c1)OCC(O)c1cc(Cl)sc12` (single isomer, unassigned) [Compound 819], the IC50 is under 100 nM.

With `C[C@H]1C[C@@]2(CCN1Cc1cnn(C)c1)OCC(O)c1cc(Cl)sc12` (single isomer, unassigned) [Compound 820], the IC50 is under 100 nM.

Turning to `COC1CO[C@@]2(CCN(Cc3cnn(CCS(C)(=O)=O)c3)[C@@H](C)C2)c2sc(Cl)cc21` (single isomer, unassigned) [Compound 842, (2′S, 7R)-2-chloro-4-methoxy-2′-methyl-1′-[[1-(2-methylsulfonylethyl)pyrazol-4-yl]methyl]spiro[4,5-dihydrothieno[2,3-c]pyran-7,4′-piperidine]], the IC50 is under 100 nM.

In the case of `COC1CO[C@@]2(CCN(Cc3cnn(CCS(C)(=O)=O)c3)[C@@H](C)C2)c2sc(Cl)cc21` (single isomer, unassigned) [Compound 843, (2′S, 7R)-2-chloro-4-methoxy-2′-methyl-1′-[[1-(2-methylsulfonylethyl)pyrazol-4-yl]methyl]spiro[4,5-dihydrothieno[2,3-c]pyran-7,4′-piperidine]], the IC50 is under 100 nM.

Source of the values: patent US20250171459A1, “2-METHYL-4',5'-DIHYDROSPIRO[PIPERIDINE-4,7'-THIENO[2,3-C]PYRAN] DERIVATIVES AS INHIBITORS OF APOL1 AND METHODS OF USING SAME” (Vertex Pharmaceuticals Incorporated, priority 2022, published 2025).
